Key:
OCI-AML-5 = assay: Antiproliferative activity against human OCI-AML5 cells assessed as inhibition of cell viability incubated for 3 to 5 days by Celltiter-Glo luminescent assay; format: functional, cell-based
[1] = biological target: Tyrosine-protein kinase JAK3 (Homo sapiens, UniProt P52333); assay: Inhibition of JAK3 (unknown origin)
Activated CDC42 kinase 1 = Activated CDC42 kinase 1 (Homo sapiens, UniProt Q07912); assay: Inhibition of TNK2 (unknown origin)
[2] = biological target: Serine/threonine-protein kinase 4 (Homo sapiens, UniProt Q13043); assay: Inhibition of MST1 (unknown origin)
Karpas-1106P = assay: Antiproliferative activity against human KARPAS-1106P cells assessed as inhibition of cell viability incubated for 3 to 5 days by Celltiter-Glo luminescent assay; format: functional, cell-based
[3] = biological target: Hepatocyte growth factor receptor (Homo sapiens, UniProt P08581); assay: Inhibition of c-MET (unknown origin)
[4] = biological target: Tyrosine-protein kinase receptor TYRO3 (Homo sapiens, UniProt Q06418); assay: Inhibition of TYRO3 (unknown origin)
NCI-H1373 = assay: Antiproliferative activity against human NCI-H1373 cells assessed as inhibition of cell viability incubated for 3 to 5 days by Celltiter-Glo luminescent assay; format: functional, cell-based
[5] = biological target: High affinity nerve growth factor receptor (Homo sapiens, UniProt P04629); assay: Inhibition of TrkA (unknown origin)
NCI-H510A = assay: Antiproliferative activity against human NCI-H510A cells assessed as inhibition of cell viability incubated for 3 to 5 days by Celltiter-Glo luminescent assay; format: functional, cell-based
Insulin receptor = Insulin receptor (Homo sapiens, UniProt P06213); assay: Inhibition of InsR (unknown origin)
Raji = assay: Antiproliferative activity against human Raji cells assessed as inhibition of cell viability incubated for 3 to 5 days by Celltiter-Glo luminescent assay; format: functional, cell-based
[6] = biological target: NT-3 growth factor receptor (Homo sapiens, UniProt Q16288); assay: Inhibition of TrkC (unknown origin)
NCI-H1417 = assay: Antiproliferative activity against human NCI-H1417 cells assessed as inhibition of cell viability incubated for 3 to 5 days by Celltiter-Glo luminescent assay; format: functional, cell-based
MDA-MB-157 = assay: Antiproliferative activity against human MDA-MB-157 cells assessed as inhibition of cell viability incubated for 3 to 5 days by Celltiter-Glo luminescent assay; format: functional, cell-based
OPM-2 = assay: Antiproliferative activity against human OPM-2 cells assessed as inhibition of cell viability incubated for 3 to 5 days by Celltiter-Glo luminescent assay; format: functional, cell-based
[7] = Toxicity in CB17 SCID mouse xenografted with human LuCaP-77 CR cell assessed as body weight loss at 100 mg/kg, ip BID administered for 7 days relative to control; format: organism-based; details: in vivo, 168 h, time 7 day
[8] = biological target: Tyrosine-protein kinase BTK (Homo sapiens, UniProt Q06187); assay: Inhibition of BTK (unknown origin)
SK-MEL-5 = assay: Antiproliferative activity against human SK-MEL-5 cells assessed as inhibition of cell viability incubated for 3 to 5 days by Celltiter-Glo luminescent assay; format: functional, cell-based
in vivo = details: CB17 SCID, mouse, brain/plasma, po, 500 mg/kg
Description: Ratio of drug concentration in brain to plasma in CB17 SCID mouse xenografted with LuCaP-77 CR cell at 500 mg/kg, po measured after 24 hrs

Malme-3M = assay: Antiproliferative activity against human Malme-3M cells assessed as inhibition of cell viability incubated for 3 to 5 days by Celltiter-Glo luminescent assay; format: functional, cell-based
COR-L47 = assay: Antiproliferative activity against human COR-L47 cells assessed as inhibition of cell viability incubated for 3 to 5 days by Celltiter-Glo luminescent assay; format: functional, cell-based
LNCaP-Clone-FGC = assay: Antiproliferative activity against human LNCaP-Clone-FGC cells assessed as inhibition of cell viability incubated for 3 to 5 days by Celltiter-Glo luminescent assay; format: functional, cell-based
NCI-H661 = assay: Antiproliferative activity against human NCI-H661 cells assessed as inhibition of cell viability incubated for 3 to 5 days by Celltiter-Glo luminescent assay; format: functional, cell-based
[9] = biological target: Cyclin-dependent kinase 11B (Homo sapiens, UniProt P21127); assay: Inhibition of CDK11 (unknown origin)
[10] = biological target: Serine/threonine-protein kinase D3 (Homo sapiens, UniProt O94806); assay: Inhibition of PRKCN (unknown origin)
Hs 695T = assay: Antiproliferative activity against human Hs 695T cells assessed as inhibition of cell viability incubated for 3 to 5 days by Celltiter-Glo luminescent assay; format: functional, cell-based
[11] = biological target: Protein kinase C zeta type (Homo sapiens, UniProt Q05513); assay: Inhibition of PKCzeta (unknown origin)
HCC1395 = assay: Antiproliferative activity against human HCC1395 cells assessed as inhibition of cell viability incubated for 3 to 5 days by Celltiter-Glo luminescent assay; format: functional, cell-based
[12] = biological target: Serine/threonine-protein kinase PLK3 (Homo sapiens, UniProt Q9H4B4); assay: Inhibition of Plk3 (unknown origin)
EOL1 = assay: Antiproliferative activity against human EOL-1 cells assessed as inhibition of cell viability incubated for 3 to 5 days by Celltiter-Glo luminescent assay; format: functional, cell-based
[13] = Half life in CB17 SCID mouse xenografted with LuCaP-77 CR cell at 200 mg/kg, ip administered for 7 days; format: ADME, organism-based; details: in vivo, time 7 day
Calu-6 = assay: Antiproliferative activity against human Calu-6 cells assessed as inhibition of cell viability incubated for 3 to 5 days by Celltiter-Glo luminescent assay; format: functional, cell-based
GA-10 = assay: Antiproliferative activity against human GA-10 cells assessed as inhibition of cell viability incubated for 3 to 5 days by Celltiter-Glo luminescent assay; format: functional, cell-based
MDA-MB-436 = assay: Antiproliferative activity against human MDA-MB-436 cells assessed as inhibition of cell viability incubated for 3 to 5 days by Celltiter-Glo luminescent assay; format: functional, cell-based
[14] = biological target: Epidermal growth factor receptor (Homo sapiens, UniProt P00533); assay: Inhibition of EGFR (unknown origin)
[15] = biological target: RAC-alpha serine/threonine-protein kinase (Homo sapiens, UniProt P31749); assay: Inhibition of Akt1 (unknown origin)
NCI-H187 = assay: Antiproliferative activity against human NCI-H187 cells assessed as inhibition of cell viability incubated for 3 to 5 days by Celltiter-Glo luminescent assay; format: functional, cell-based
CHL-1 = assay: Antiproliferative activity against human CHL-1 cells assessed as inhibition of cell viability incubated for 3 to 5 days by Celltiter-Glo luminescent assay; format: functional, cell-based
NCI-H596 = assay: Antiproliferative activity against human NCI-H596 cells assessed as inhibition of cell viability incubated for 3 to 5 days by Celltiter-Glo luminescent assay; format: functional, cell-based
[16] = biological target: Tyrosine-protein kinase Fyn (Homo sapiens, UniProt P06241); assay: Inhibition of Fyn (unknown origin)
[17] = Cmax in CB17 SCID mouse xenografted with LuCaP-77 CR cell at 200 mg/kg, ip administered for 7 days; format: ADME, organism-based; details: in vivo, time 7 day
NCI-H727 = assay: Antiproliferative activity against human NCI-H727 cells assessed as inhibition of cell viability incubated for 3 to 5 days by Celltiter-Glo luminescent assay; format: functional, cell-based

Sequence of Insulin receptor (P06213 28-758 limits assumed): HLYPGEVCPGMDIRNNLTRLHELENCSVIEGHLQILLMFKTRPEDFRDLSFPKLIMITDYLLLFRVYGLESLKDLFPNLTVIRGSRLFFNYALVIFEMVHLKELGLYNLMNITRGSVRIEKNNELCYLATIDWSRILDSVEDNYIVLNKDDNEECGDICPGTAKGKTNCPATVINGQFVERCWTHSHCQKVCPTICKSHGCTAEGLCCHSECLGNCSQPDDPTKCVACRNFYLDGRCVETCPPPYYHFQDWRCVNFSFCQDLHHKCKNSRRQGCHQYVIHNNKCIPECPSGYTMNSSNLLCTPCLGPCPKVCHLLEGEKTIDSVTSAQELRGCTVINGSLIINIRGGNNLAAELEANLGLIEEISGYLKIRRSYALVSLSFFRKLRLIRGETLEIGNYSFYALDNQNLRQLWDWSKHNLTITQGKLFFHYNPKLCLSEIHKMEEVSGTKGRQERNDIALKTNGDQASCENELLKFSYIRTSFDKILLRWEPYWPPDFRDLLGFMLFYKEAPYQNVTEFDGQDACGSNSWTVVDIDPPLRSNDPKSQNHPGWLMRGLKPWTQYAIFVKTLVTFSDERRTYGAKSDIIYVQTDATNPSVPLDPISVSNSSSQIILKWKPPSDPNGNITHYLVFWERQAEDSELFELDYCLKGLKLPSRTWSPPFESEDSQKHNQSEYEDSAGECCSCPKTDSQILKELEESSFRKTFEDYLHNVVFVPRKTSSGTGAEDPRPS
Sequence of Insulin receptor (P06213 763-1382 limits assumed): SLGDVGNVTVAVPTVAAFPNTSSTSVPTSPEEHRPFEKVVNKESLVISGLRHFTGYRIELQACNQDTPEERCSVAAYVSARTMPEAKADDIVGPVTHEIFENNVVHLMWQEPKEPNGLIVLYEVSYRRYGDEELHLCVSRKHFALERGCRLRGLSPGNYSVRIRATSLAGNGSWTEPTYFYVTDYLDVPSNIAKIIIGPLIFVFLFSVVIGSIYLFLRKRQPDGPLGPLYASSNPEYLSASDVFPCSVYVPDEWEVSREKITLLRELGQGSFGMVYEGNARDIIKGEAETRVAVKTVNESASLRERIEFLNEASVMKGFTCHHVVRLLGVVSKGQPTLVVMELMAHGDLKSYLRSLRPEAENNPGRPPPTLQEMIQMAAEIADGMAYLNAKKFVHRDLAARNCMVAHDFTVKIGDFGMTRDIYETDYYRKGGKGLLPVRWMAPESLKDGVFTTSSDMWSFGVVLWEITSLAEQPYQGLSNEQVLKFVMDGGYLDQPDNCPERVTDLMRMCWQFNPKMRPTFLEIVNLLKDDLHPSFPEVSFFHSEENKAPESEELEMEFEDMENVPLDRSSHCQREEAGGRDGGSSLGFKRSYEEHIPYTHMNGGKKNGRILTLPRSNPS
Sequence of Tyrosine-protein kinase Fyn (P06241 whole entry): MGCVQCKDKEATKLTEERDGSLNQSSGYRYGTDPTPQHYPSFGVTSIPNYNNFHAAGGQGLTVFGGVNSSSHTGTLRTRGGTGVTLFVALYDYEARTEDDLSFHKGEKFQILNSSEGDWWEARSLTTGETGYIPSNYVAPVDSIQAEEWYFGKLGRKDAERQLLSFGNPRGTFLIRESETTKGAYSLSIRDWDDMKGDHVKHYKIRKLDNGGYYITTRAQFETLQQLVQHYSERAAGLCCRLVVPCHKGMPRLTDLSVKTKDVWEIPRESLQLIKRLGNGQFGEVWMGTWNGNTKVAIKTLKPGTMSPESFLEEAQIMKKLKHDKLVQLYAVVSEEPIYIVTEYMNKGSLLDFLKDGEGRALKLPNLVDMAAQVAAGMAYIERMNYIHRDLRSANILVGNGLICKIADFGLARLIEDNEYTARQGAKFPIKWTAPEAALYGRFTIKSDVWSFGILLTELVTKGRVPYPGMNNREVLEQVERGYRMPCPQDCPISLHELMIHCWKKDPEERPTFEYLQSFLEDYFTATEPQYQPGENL
Sequence of Tyrosine-protein kinase receptor TYRO3 (Q06418 whole entry): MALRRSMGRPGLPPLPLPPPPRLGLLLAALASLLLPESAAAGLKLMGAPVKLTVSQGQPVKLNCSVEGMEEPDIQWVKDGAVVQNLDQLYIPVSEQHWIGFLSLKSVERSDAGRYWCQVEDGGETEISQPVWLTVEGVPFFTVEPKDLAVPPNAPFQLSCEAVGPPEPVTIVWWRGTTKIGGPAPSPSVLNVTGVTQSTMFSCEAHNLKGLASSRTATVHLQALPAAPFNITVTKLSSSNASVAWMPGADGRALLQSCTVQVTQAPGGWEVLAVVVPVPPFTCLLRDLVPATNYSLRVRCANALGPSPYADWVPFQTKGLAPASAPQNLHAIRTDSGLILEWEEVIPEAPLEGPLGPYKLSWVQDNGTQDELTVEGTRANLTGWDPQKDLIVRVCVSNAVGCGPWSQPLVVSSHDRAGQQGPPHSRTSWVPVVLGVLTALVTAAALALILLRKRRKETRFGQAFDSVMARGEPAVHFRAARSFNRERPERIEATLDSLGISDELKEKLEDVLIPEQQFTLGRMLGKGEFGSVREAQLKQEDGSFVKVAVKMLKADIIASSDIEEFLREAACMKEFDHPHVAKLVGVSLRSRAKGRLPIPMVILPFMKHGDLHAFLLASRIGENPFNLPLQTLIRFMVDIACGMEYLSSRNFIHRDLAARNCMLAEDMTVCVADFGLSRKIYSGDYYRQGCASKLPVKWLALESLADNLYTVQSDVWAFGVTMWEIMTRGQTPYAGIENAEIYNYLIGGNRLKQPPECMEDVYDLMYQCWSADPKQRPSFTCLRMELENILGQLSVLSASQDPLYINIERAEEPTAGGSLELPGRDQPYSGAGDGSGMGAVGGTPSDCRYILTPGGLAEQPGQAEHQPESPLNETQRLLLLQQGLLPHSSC
Sequence of High affinity nerve growth factor receptor (P04629 whole entry): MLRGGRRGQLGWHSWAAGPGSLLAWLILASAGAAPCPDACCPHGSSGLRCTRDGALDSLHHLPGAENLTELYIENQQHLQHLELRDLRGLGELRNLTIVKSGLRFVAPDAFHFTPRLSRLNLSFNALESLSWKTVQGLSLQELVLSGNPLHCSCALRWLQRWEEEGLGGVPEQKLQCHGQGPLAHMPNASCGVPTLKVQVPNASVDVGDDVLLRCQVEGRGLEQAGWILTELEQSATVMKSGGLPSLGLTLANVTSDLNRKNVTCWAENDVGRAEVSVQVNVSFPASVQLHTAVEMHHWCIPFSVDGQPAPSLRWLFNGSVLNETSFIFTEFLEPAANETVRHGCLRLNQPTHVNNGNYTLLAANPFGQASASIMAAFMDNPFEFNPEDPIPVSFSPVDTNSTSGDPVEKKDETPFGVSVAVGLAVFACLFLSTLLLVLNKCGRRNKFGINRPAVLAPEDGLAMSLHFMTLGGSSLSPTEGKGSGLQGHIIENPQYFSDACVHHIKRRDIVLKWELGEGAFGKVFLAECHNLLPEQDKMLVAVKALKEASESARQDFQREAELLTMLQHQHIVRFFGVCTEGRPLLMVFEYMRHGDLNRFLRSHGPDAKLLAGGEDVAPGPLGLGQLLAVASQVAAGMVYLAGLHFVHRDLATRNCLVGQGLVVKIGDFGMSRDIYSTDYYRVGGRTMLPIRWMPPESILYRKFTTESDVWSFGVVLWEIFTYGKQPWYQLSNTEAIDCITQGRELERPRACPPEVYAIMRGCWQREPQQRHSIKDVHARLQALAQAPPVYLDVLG
Sequence of Tyrosine-protein kinase BTK (Q06187 whole entry): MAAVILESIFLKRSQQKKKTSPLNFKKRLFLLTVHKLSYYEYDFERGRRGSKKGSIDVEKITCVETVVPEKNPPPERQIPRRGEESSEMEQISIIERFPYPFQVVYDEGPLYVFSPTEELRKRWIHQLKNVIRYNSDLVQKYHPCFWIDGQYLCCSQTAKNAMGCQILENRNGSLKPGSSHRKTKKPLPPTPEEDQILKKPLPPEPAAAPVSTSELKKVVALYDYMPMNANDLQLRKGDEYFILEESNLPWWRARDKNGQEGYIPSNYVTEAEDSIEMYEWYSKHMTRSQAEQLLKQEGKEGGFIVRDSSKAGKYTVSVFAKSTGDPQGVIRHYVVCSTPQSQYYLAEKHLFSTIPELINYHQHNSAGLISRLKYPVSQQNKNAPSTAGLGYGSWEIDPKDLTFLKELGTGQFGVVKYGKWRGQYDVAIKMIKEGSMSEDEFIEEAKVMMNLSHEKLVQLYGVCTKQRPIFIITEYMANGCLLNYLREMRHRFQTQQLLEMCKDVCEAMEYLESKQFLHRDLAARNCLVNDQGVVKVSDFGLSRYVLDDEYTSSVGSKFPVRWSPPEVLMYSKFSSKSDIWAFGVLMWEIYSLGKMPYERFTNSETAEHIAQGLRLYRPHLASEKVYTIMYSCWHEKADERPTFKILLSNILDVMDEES
Sequence of Cyclin-dependent kinase 11B (P21127 whole entry): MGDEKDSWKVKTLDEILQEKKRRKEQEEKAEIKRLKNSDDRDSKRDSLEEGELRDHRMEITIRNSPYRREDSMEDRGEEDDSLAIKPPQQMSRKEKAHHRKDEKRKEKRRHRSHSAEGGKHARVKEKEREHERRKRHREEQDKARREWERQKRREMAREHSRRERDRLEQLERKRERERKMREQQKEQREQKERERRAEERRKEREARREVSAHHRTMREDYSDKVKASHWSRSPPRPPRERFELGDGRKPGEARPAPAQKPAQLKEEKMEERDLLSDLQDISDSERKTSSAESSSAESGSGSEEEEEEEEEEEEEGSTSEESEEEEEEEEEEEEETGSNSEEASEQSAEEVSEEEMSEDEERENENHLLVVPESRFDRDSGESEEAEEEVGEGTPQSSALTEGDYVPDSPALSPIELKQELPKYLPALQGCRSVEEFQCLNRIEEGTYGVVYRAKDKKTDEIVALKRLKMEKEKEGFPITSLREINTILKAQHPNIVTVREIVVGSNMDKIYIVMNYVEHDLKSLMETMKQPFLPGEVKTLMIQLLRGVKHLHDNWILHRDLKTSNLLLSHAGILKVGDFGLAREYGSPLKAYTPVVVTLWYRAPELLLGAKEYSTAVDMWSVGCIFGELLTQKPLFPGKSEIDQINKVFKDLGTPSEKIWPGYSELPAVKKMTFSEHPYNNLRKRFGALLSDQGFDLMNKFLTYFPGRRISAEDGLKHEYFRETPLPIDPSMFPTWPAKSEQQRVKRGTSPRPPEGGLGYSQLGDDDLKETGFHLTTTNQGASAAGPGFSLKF

## CNC(=O)Nc1ccc2c(c1)CC[C@@]21OC(=O)N(CC(=O)N(Cc2ccc(F)cc2)[C@@H](C)C(F)(F)F)C1=O [A-485]
OCI-AML-5
  EC50: 4.86 µM
[1]
  IC50: > 10 µM
Activated CDC42 kinase 1
  IC50: > 10 µM
[2]
  IC50: > 10 µM
Karpas-1106P
  EC50: 0.41 µM
[3]
  IC50: > 10 µM
[4]
  IC50: > 10 µM
NCI-H1373
  EC50: 2.34 µM
[5]
  IC50: > 10 µM
NCI-H510A
  EC50: > 10 µM
Insulin receptor
  IC50: > 10 µM
Raji
  EC50: 0.46 µM
[6]
  IC50: > 10 µM
NCI-H1417
  EC50: > 10 µM
MDA-MB-157
  EC50: 4.59 µM
OPM-2
  EC50: 0.62 µM
[7]
  Activity: 9%
[8]
  IC50: > 10 µM
SK-MEL-5
  EC50: 0.91 µM
In vivo
  Kp at 24 h: 0.03
Malme-3M
  EC50: 2.69 µM
COR-L47
  EC50: > 10 µM
LNCaP-Clone-FGC
  EC50: 0.26 µM
NCI-H661
  EC50: 7.66 µM
[9]
  IC50: > 10 µM
[10]
  IC50: > 10 µM
Hs 695T
  EC50: 3.57 µM
[11]
  IC50: > 10 µM
HCC1395
  EC50: > 10 µM
[12]
  IC50: 2.69 µM
EOL1
  EC50: > 10 µM
[13]
  half-life: 3 h
Calu-6
  EC50: 8.57 µM
GA-10
  EC50: 1.06 µM
MDA-MB-436
  EC50: > 10 µM
[14]
  IC50: > 10 µM
[15]
  IC50: > 10 µM
NCI-H187
  EC50: > 10 µM
CHL-1
  EC50: 0.37 µM
NCI-H596
  EC50: > 10 µM
[16]
  IC50: > 10 µM
[17]
  Cmax: 242 µg/mL
NCI-H727
  EC50: 6.63 µM

From ChEMBL document CHEMBL5649168, “Discovery of a selective catalytic p300/CBP inhibitor that targets lineage-specific tumours” (Nature, 2017)
